Test results reported in PubChem BioAssay (NCI).
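Five concentrations, 48 hours, 96-well plates. GI50 = concentration required for 50% inhibition of growth. Definition used: TGI = concentration required for complete inhibition of growth.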

Tests used:
Experiment in all cases: NCI tumour cell line growth inhibition, 48 h
[1] = test system: 786-0 renal
[2] = test system: A498 renal
[3] = test system: A549 NSCLC
[4] = test system: ACHN renal
[5] = test system: CAKI-1 renal
[6] = test system: CCRF-CEM leukemia
[7] = test system: COLO 205 colon
[8] = test system: DLD-1 colon
[9] = test system: DMS 114 small cell lung
[10] = test system: DMS 273 small cell lung
[11] = test system: EKVX NSCLC
[12] = test system: HCT-116 colon
[13] = test system: HCT-15 colon
[14] = test system: HL-60(TB) leukemia
[15] = test system: HOP-18 NSCLC
[16] = test system: HOP-62 NSCLC
[17] = test system: HT29 colon
[18] = test system: IGROV1 ovarian
[19] = test system: K-562 leukemia
[20] = test system: KM12 colon
[21] = test system: KM20L2 colon
[22] = test system: LOX IMVI melanoma
[23] = test system: LXFL 529 NSCLC
[24] = test system: M14 melanoma
[25] = test system: M19-MEL melanoma
[26] = test system: MALME-3M melanoma
[27] = test system: MOLT-4 leukemia
[28] = test system: NCI-H226 lung
[29] = test system: NCI-H23 lung
[30] = test system: NCI-H460 lung
[31] = test system: NCI-H522 lung
[32] = test system: OVCAR-3 ovarian
[33] = test system: OVCAR-4 ovarian
[34] = test system: OVCAR-5 ovarian
[35] = test system: OVCAR-8 ovarian
[36] = test system: RPMI-8226 leukemia
[37] = test system: RXF 393 renal
[38] = test system: SF-268 CNS
[39] = test system: SF-295 CNS
[40] = test system: SF-539 CNS
[41] = test system: SK-MEL-2 melanoma
[42] = test system: SK-MEL-28 melanoma
[43] = test system: SK-MEL-5 melanoma
[44] = test system: SK-OV-3 ovarian
[45] = test system: SN12C renal
[46] = test system: SNB-19 CNS
[47] = test system: SNB-75 CNS
[48] = test system: SNB-78 CNS
[49] = test system: SW-620 colon
[50] = test system: TK-10 renal
[51] = test system: UACC-257 melanoma
[52] = test system: UACC-62 melanoma
[53] = test system: UO-31 renal
[54] = test system: HCC-2998 colon
[55] = test system: HOP-92 NSCLC
[56] = test system: MCF7 breast
[57] = test system: NCI/ADR-RES ovarian
[58] = test system: P388 leukemia
[59] = test system: P388/ADR leukemia
[60] = test system: SN12K1 renal
[61] = test system: U251 CNS
[62] = test system: XF 498 CNS
[63] = test system: SR leukemia

Work on `CC1(C)OC(=O)C=C([O-])O1.CC1(C)OC(=O)C=C([O-])O1.O=c1c(O)c(-c2ccc([O-])cc2[O-])oc2cc(O)cc(O)c12.[Ti+4]` yielded a TGI [1] greater than 100 µM, a GI50 [2] of 58.1 µM and a TGI [2] greater than 100 µM. It also gave a TGI [3] greater than 100 µM, a TGI [4] greater than 100 µM and a TGI [5] greater than 100 µM. It also gave a TGI [6] greater than 100 µM, a TGI [7] greater than 100 µM and a GI50 [8] greater than 100 µM. For the same molecule, the TGI [8] was greater than 100 µM, the GI50 [9] was 64.7 µM and the TGI [9] was greater than 100 µM. For the same molecule, the GI50 [10] was 32.2 µM, the TGI [10] was greater than 100 µM and the TGI [11] was greater than 100 µM. For the same molecule, the TGI [12] was greater than 100 µM, the TGI [13] was greater than 100 µM and the TGI [14] was greater than 100 µM. For the same molecule, the GI50 [15] was 25 µM, the TGI [15] was greater than 100 µM and the TGI [16] was greater than 100 µM. The TGI [17] was greater than 100 µM, the TGI [18] was greater than 100 µM and the TGI [19] was greater than 100 µM. It also gave a TGI [20] greater than 100 µM, a GI50 [21] greater than 100 µM and a TGI [21] greater than 100 µM. The TGI [22] was greater than 100 µM, the GI50 [23] was greater than 100 µM and the TGI [23] was greater than 100 µM. The TGI [24] was greater than 100 µM, the GI50 [25] was 92.1 µM and the TGI [25] was greater than 100 µM. It also gave a TGI [26] greater than 100 µM, a GI50 [27] of 31.6 µM and a TGI [27] greater than 100 µM. The TGI [28] was greater than 100 µM, the TGI [29] was 73.7 µM and the TGI [30] was greater than 100 µM. For the same molecule, the TGI [31] was 63 µM, the TGI [32] was greater than 100 µM and the TGI [33] was greater than 100 µM. The TGI [34] was greater than 100 µM, the TGI [35] was greater than 100 µM and the GI50 [36] was 59 µM. The TGI [36] was greater than 100 µM, the GI50 [37] was 36.7 µM and the TGI [37] was 93.3 µM. It also gave a TGI [38] of 95.5 µM, a TGI [39] greater than 100 µM and a TGI [40] of 60.2 µM. The TGI [41] was 67.5 µM, the TGI [42] was greater than 100 µM and the TGI [43] was greater than 100 µM. The GI50 [44] was 83.1 µM, the TGI [44] was greater than 100 µM and the TGI [45] was greater than 100 µM. The TGI [46] was greater than 100 µM, the TGI [47] was 60.4 µM and the GI50 [48] was greater than 100 µM. For the same molecule, the TGI [48] was greater than 100 µM, the TGI [49] was greater than 100 µM and the TGI [50] was greater than 100 µM. It also gave a TGI [51] greater than 100 µM, a GI50 [52] of 33.1 µM and a TGI [52] greater than 100 µM. For the same molecule, the TGI [53] was 90.5 µM.

`COc1cc(CCCOC2OC(COC3OCC(O)C(O)C3O)C(O)C(O)C2O)cc2cc(-c3ccc4c(c3)OCO4)oc12` (stereo unspecified) gave a TGI [2] greater than 27.7 µM, a TGI [3] greater than 175 µM and a TGI [5] greater than 175 µM. The TGI [6] was greater than 69.7 µM, the TGI [7] was greater than 175 µM and the TGI [8] was greater than 175 µM. It also gave a TGI [9] greater than 175 µM, a TGI [10] greater than 175 µM and a TGI [11] greater than 175 µM. It also gave a TGI [54] greater than 98.4 µM, a TGI [12] greater than 175 µM and a TGI [13] greater than 175 µM. The TGI [14] was greater than 175 µM, the TGI [16] was greater than 175 µM and the TGI [55] was greater than 175 µM. It also gave a TGI [17] greater than 175 µM, a TGI [18] greater than 175 µM and a TGI [19] greater than 175 µM. It also gave a TGI [20] greater than 175 µM, a TGI [21] greater than 175 µM and a TGI [22] greater than 175 µM. It also gave a TGI [25] greater than 175 µM, a TGI [26] greater than 175 µM and a TGI [56] greater than 175 µM. For the same molecule, the TGI [27] was greater than 175 µM, the TGI [28] was greater than 175 µM and the TGI [29] was greater than 175 µM. It also gave a TGI [30] greater than 175 µM, a TGI [31] greater than 175 µM and a TGI [57] greater than 175 µM. For the same molecule, the TGI [32] was greater than 175 µM, the TGI [33] was greater than 175 µM and the TGI [34] was greater than 175 µM. The TGI [35] was 109 µM, the TGI [58] was greater than 175 µM and the TGI [59] was greater than 175 µM. The TGI [36] was greater than 175 µM, the TGI [37] was greater than 114 µM and the TGI [38] was greater than 175 µM. For the same molecule, the TGI [39] was greater than 175 µM, the TGI [40] was greater than 175 µM and the TGI [41] was greater than 175 µM. The TGI [42] was greater than 175 µM, the TGI [43] was greater than 175 µM and the TGI [44] was greater than 175 µM. The TGI [45] was 99.5 µM, the TGI [60] was greater than 175 µM and the TGI [46] was greater than 175 µM. The TGI [47] was greater than 175 µM, the TGI [48] was greater than 175 µM and the TGI [49] was greater than 175 µM. The TGI [61] was greater than 175 µM, the TGI [51] was greater than 175 µM and the TGI [52] was greater than 175 µM. It also gave a TGI [53] greater than 175 µM and a TGI [62] greater than 175 µM.

`CC(O)CN1C(=O)NC(Cc2ccccc2)C1=O` (stereo unspecified) was tested, and the TGI [1] was greater than 100 µM, the TGI [3] was greater than 100 µM and the TGI [4] was greater than 100 µM. For the same molecule, the TGI [5] was greater than 100 µM, the TGI [7] was greater than 100 µM and the TGI [8] was greater than 100 µM. The TGI [9] was greater than 100 µM, the TGI [10] was greater than 100 µM and the TGI [11] was greater than 100 µM. It also gave a TGI [54] greater than 100 µM, a TGI [14] greater than 100 µM and a TGI [15] greater than 100 µM. The TGI [16] was 86.3 µM, the TGI [55] was greater than 100 µM and the TGI [17] was greater than 100 µM. For the same molecule, the TGI [20] was greater than 100 µM, the TGI [21] was greater than 100 µM and the TGI [22] was greater than 100 µM. The TGI [23] was greater than 100 µM, the TGI [24] was greater than 100 µM and the TGI [28] was greater than 100 µM. The TGI [29] was greater than 100 µM, the TGI [30] was greater than 100 µM and the TGI [31] was greater than 100 µM. The TGI [34] was greater than 100 µM, the TGI [35] was greater than 100 µM and the TGI [37] was greater than 100 µM. The TGI [38] was greater than 100 µM, the TGI [39] was greater than 100 µM and the TGI [40] was greater than 100 µM. It also gave a TGI [41] greater than 100 µM, a TGI [42] greater than 100 µM and a TGI [45] greater than 100 µM. The TGI [46] was greater than 100 µM, the TGI [47] was greater than 100 µM and the TGI [48] was greater than 100 µM. It also gave a TGI [63] greater than 100 µM, a TGI [49] greater than 100 µM and a TGI [50] greater than 100 µM. For the same molecule, the TGI [61] was greater than 100 µM, the TGI [51] was greater than 100 µM and the TGI [53] was greater than 100 µM. The TGI [62] was greater than 100 µM.
